Values joined by “and” are separate entries in the source; they are usually repeats but may differ in a detail not shown here. Identical values can stand only once.
Assay: xn = mol fraction of the nth substance listed
Details: 100 kPa; for electrical conductivity: Alternating current cell with electrodes; for viscosity: Concentric cylinders viscometry; for mass density: Vibrating tube method

CCCCCCCCOS(=O)(=O)[O-].CCn1cc[n+](C)c1 [1-ethyl-3-methylimidazolium octyl sulfate] + O
Details	electrical conductivity	mass density	viscosity
278.1 K, Glass, x1 = 0.1197	–	–	591.8 mPa·s
278.1 K, Glass, x1 = 0.3555	0.188 S/m	–	2561 mPa·s and 2061 mPa·s
278.1 K, Liquid, x1 = 0.0401	1.32 S/m and 1.31 S/m	–	–
278.1 K, Liquid, x1 = 0.0586	1.24 S/m	–	–
278.1 K, Liquid, x1 = 0.1197	–	1079 kg/m3	–
278.1 K, Liquid, x1 = 0.1402	–	1080.9 kg/m3	–
278.1 K, Liquid, x1 = 0.3555	–	1099.7 kg/m3 and 1099.8 kg/m3	–
278.1 K, Liquid, x1 = 0.4108	0.144 S/m	1101.5 kg/m3	394.6 mPa·s
278.1 K, Liquid, x1 = 0.4688	0.097 S/m	–	–
278.1 K, Liquid, x1 = 0.5001	0.089 S/m	–	–
278.6 K, Glass, x1 = 0.3555	–	–	1160 mPa·s
278.6 K, Liquid, x1 = 0.3555	–	1099.4 kg/m3	–
279.1 K, Glass, x1 = 0.3555	0.198 S/m	–	633.2 mPa·s
279.1 K, Liquid, x1 = 0.0803	1.1 S/m	–	–
279.1 K, Liquid, x1 = 0.1197	0.866 S/m	–	–
279.1 K, Liquid, x1 = 0.3555	–	1098.8 kg/m3	–
280.1 K, Glass, x1 = 0.1402	0.788 S/m	–	–
280.1 K, Liquid, x1 = 0.3555	0.206 S/m and 0.205 S/m	1098.3 kg/m3	307.6 mPa·s
280.1 K, Liquid, x1 = 0.4688	0.109 S/m	–	–
280.6 K, Liquid, x1 = 0.3555	–	1097.9 kg/m3	297.5 mPa·s
281.1 K, Glass, x1 = 0.1402	0.815 S/m and 0.816 S/m	–	–
281.1 K, Glass, x1 = 0.1605	0.737 S/m	–	–
281.1 K, Liquid, x1 = 0.0803	1.22 S/m	–	–
281.1 K, Liquid, x1 = 0.1197	0.927 S/m	–	–
281.1 K, Liquid, x1 = 0.3555	0.215 S/m and 0.214 S/m	1097.6 kg/m3	287.4 mPa·s
281.1 K, Liquid, x1 = 0.4108	0.168 S/m	–	–
282.1 K, Glass, x1 = 0.1402	0.848 S/m and 0.847 S/m	–	–
282.1 K, Glass, x1 = 0.1605	0.766 S/m	–	–
282.1 K, Glass, x1 = 0.3076	–	–	12190 mPa·s
282.1 K, Liquid, x1 = 0.3076	–	1094.6 kg/m3	–
282.1 K, Liquid, x1 = 0.3555	–	1096.9 kg/m3	268.8 mPa·s
282.6 K, Glass, x1 = 0.3076	–	–	7608 mPa·s
282.6 K, Liquid, x1 = 0.3076	–	1094.3 kg/m3	–
283.1 K, Glass, x1 = 0.1402	0.873 S/m and 0.874 S/m	–	11410 mPa·s
283.1 K, Glass, x1 = 0.1605	0.793 S/m and 0.791 S/m	–	–
283.1 K, Glass, x1 = 0.2119	0.566 S/m and 0.563 S/m	–	–
283.1 K, Glass, x1 = 0.2632	0.393 S/m	–	–
283.1 K, Glass, x1 = 0.3076	–	–	2873 mPa·s
283.1 K, Liquid, x1 = 0.0401	1.48 S/m	–	–
283.1 K, Liquid, x1 = 0.0586	1.46 S/m and 1.45 S/m	–	–
283.1 K, Liquid, x1 = 0.0803	1.29 S/m	–	–
283.1 K, Liquid, x1 = 0.1197	0.987 S/m	1075.7 kg/m3	105.5 mPa·s
283.1 K, Liquid, x1 = 0.1402	–	1078.9 kg/m3	–
283.1 K, Liquid, x1 = 0.3076	–	1094.1 kg/m3	–
283.1 K, Liquid, x1 = 0.3555	0.234 S/m and 0.236 S/m	1096.1 kg/m3 and 1096.2 kg/m3	251.8 mPa·s and 251.7 mPa·s
283.1 K, Liquid, x1 = 0.4108	0.189 S/m	1098 kg/m3	282.2 mPa·s
283.1 K, Liquid, x1 = 0.4688	0.128 S/m and 0.124 S/m	–	–
283.1 K, Liquid, x1 = 0.5001	0.117 S/m	–	–
283.6 K, Glass, x1 = 0.3076	–	–	1129 mPa·s
283.6 K, Liquid, x1 = 0.3076	–	1093.8 kg/m3	–
284.1 K, Glass, x1 = 0.1605	0.819 S/m	–	–
284.1 K, Glass, x1 = 0.2632	0.409 S/m	–	–
284.1 K, Glass, x1 = 0.3076	0.335 S/m	–	560.6 mPa·s
284.1 K, Liquid, x1 = 0.1402	0.908 S/m and 0.907 S/m	–	–
284.1 K, Liquid, x1 = 0.3076	–	1093.6 kg/m3	–
285.1 K, Glass, x1 = 0.1402	–	–	6220 mPa·s
285.1 K, Glass, x1 = 0.1605	0.847 S/m and 0.848 S/m	–	–
285.1 K, Glass, x1 = 0.2632	0.431 S/m	–	–
285.1 K, Glass, x1 = 0.3076	0.349 S/m	–	–
285.1 K, Liquid, x1 = 0.0803	1.37 S/m	–	–
285.1 K, Liquid, x1 = 0.1197	1.06 S/m	–	–
285.1 K, Liquid, x1 = 0.1402	0.934 S/m and 0.936 S/m	1077.9 kg/m3	–
285.1 K, Liquid, x1 = 0.3076	–	1092.7 kg/m3	191.9 mPa·s
285.1 K, Liquid, x1 = 0.3555	0.258 S/m and 0.257 S/m	–	–
285.1 K, Liquid, x1 = 0.4108	0.209 S/m	–	–
285.1 K, Liquid, x1 = 0.4688	0.142 S/m	–	–
285.6 K, Liquid, x1 = 0.3076	–	1092.4 kg/m3	186 mPa·s
286.1 K, Glass, x1 = 0.1402	–	–	4375 mPa·s
286.1 K, Glass, x1 = 0.1605	0.875 S/m and 0.876 S/m	–	–
286.1 K, Glass, x1 = 0.2632	0.449 S/m and 0.445 S/m	–	–
286.1 K, Glass, x1 = 0.3076	0.363 S/m and 0.362 S/m	–	–
286.1 K, Liquid, x1 = 0.1402	0.965 S/m and 0.967 S/m	1077.3 kg/m3	–
286.1 K, Liquid, x1 = 0.3076	–	1092 kg/m3	180.2 mPa·s
286.6 K, Glass, x1 = 0.2632	0.455 S/m	–	–
286.6 K, Liquid, x1 = 0.2632	–	1088.8 kg/m3	–
286.6 K, Liquid, x1 = 0.3076	–	1091.7 kg/m3	174.6 mPa·s
287.1 K, Glass, x1 = 0.1402	–	–	2587 mPa·s
287.1 K, Glass, x1 = 0.1605	0.904 S/m	–	–
287.1 K, Glass, x1 = 0.1766	0.817 S/m	–	–
287.1 K, Glass, x1 = 0.2632	0.463 S/m	–	14710 mPa·s
287.1 K, Liquid, x1 = 0.1197	1.13 S/m	–	–
287.1 K, Liquid, x1 = 0.1402	0.996 S/m and 0.997 S/m	–	–
287.1 K, Liquid, x1 = 0.1605	0.906 S/m	–	–
